Legend:
[1] = Rat plasma stability assay (LC-DAD-MS/MS); type: in vitro ADME; conditions: 1 h of incubation at 37 °C
Procedure: Our aim was to develop plasma-stable conjugates that would be hydrolyzed in the brain. Selective localized hydrolysis of conjugates 1 and 2 would permit a CNS-targeted profile and less side effects. Thus, plasma stability is an important pharmacokinetic prerequisite for 1 and 2. As reported by stability assays performed by LC-DAD-MS/MS analysis (Figure 3), conjugates 1 and 2 are stable for more than 85% after 1 h of incubation at 37 °C in rat plasma. […] The mean plasma remaining fraction of the two conjugates after 1 h of incubation was compared by means of t test and a statistically relevant difference (p < 0.01) was observed.
Velp (Usmate, Italy) RX3 vortex mixer and an Elma (Singen, Germany) Sonic T310 Trans ultrasonic […]
Chromatographic runs were obtained on an Agilent (Palo Alto, Ca, US) ZORBAX SB-C18 column (50 × 2.1 mm I.D., 3.5 µm particles), maintained at room temperature and equipped with a guard column. […] For compound stability and hydrolysis studies, multiple reaction monitoring (MRM) acquisition mode was set up for both compounds 1 and 2, by flow-injection analysis directly in the MS source, in order to optimize ionization parameters and to select two exclusive MRM m/z transitions for each analyte, exploited for quantitative purposes and for qualitative confirmation, respectively. […]

Olig2 = test: Oli-Neu proliferation marker Olig2 expression (Western blot); type: cell-based, mouse; conditions: Oli-Neu cells, 5 μM, 48 h
Excerpt: OPC proliferation and migration to the CNS injury site as well as their differentiation are critical steps toward remyelination in MS. HDAC activity plays a crucial role in OPC proliferation/differentiation; therefore, HDAC modulation is widely considered a promising therapeutic target for MS.[30] […] Therefore, we tested the effect of our compounds on OPC proliferation and differentiation, through cell counting, measure of filaments, and analysis of proliferation/differentiation markers (Figure 7).
Oli-Neu cells were grown in SATO medium (DMEM medium, 2 mM glutamine, 10 μg/ml insulin, 5.5 μg/ml transferrin, 38.72 nM sodium selenite, 100 µM putrescine, 520 nM L-thyroxine (T4), 500 nM triiodo-L-thyronine (T3), 200 nM progesterone, 25 μg/ml of gentamycin) supplemented with 1% heat-inactivated horse serum (HS) in a humidified, 5% CO2 incubator at 37°C. Cell culture medium and all chemicals were from Sigma-Aldrich, except for insulin-transferrin-sodium selenite 100X supplement (Life Technologies Corporation). Cells were plated on 96 well plates, previously coated with 10 μg/mL poly-L-lysine (Sigma-Aldrich; 10 μg/ml) at the density of 2.5 x 10 4/0.2 mL medium/well and treated with increasing concentrations of the compounds (0.5, 1, 5 and 10 μM).
After 24 hours, the viability was evaluated through the MTT assay.
Oli-Neu cells proliferation and differentiation assay
48 hours, for cell counting and measure of filaments, 5 random images for each condition were acquired with an Eclipse TS100 (Nikon) microscope using a 10X objective. Cells number and filament length were measured with Fiji ImageJ2 software. After 48 hours for proliferation and 72 hours of treatment for differentiation analysis, cells were lysed in ice-cold lysis buffer (50 mM Tris-HCl pH 7.4, 1% SDS, 0.05% protease inhibitor cocktail; all from Sigma-Aldrich) and protein content was determined by using the Lowry method. […]

Structure (SMILES) | percentage remaining upon incubation in rat plasma [1] | expression of Olig2, marker of OPCs proliferation (Olig2)
CC/C=C\C/C=C\C/C=C\CCCCCCCC(=O)NCCNC(=O)C(CCC)CCC [compound 1] | 89% | marked decrease
CC/C=C\C/C=C\C/C=C\CCCCCCCC(=O)NCCOC(=O)C(CCC)CCC [compound 2] | 85% | marked decrease
